Data taken from article PMC11345841, “Exploring 2-Sulfonylpyrimidine Warheads as Acrylamide Surrogates for Targeted Covalent Inhibition: A BTK Story” (Journal of Medicinal Chemistry, 2024).
Like-named read-outs stand apart in the source and are kept apart here.

Key:
Assay in all cases: KINOMEscan ScanTK
Format in all cases: binding
ABL1-nonphosphorylated = molecular target: T1, ABL1-nonphosphorylated (Homo sapiens, UniProt P00519)
T1 construct: purchased Eurofins DiscoverX KINOMEscan (scanTK)

ALK(L1196M) = molecular target: T2, ALK(L1196M) (Homo sapiens, UniProt Q9UM73, L1196M)
T2 construct: purchased Eurofins DiscoverX KINOMEscan (scanTK)
T2 sequence (Q9UM73 19-1620 L1196M): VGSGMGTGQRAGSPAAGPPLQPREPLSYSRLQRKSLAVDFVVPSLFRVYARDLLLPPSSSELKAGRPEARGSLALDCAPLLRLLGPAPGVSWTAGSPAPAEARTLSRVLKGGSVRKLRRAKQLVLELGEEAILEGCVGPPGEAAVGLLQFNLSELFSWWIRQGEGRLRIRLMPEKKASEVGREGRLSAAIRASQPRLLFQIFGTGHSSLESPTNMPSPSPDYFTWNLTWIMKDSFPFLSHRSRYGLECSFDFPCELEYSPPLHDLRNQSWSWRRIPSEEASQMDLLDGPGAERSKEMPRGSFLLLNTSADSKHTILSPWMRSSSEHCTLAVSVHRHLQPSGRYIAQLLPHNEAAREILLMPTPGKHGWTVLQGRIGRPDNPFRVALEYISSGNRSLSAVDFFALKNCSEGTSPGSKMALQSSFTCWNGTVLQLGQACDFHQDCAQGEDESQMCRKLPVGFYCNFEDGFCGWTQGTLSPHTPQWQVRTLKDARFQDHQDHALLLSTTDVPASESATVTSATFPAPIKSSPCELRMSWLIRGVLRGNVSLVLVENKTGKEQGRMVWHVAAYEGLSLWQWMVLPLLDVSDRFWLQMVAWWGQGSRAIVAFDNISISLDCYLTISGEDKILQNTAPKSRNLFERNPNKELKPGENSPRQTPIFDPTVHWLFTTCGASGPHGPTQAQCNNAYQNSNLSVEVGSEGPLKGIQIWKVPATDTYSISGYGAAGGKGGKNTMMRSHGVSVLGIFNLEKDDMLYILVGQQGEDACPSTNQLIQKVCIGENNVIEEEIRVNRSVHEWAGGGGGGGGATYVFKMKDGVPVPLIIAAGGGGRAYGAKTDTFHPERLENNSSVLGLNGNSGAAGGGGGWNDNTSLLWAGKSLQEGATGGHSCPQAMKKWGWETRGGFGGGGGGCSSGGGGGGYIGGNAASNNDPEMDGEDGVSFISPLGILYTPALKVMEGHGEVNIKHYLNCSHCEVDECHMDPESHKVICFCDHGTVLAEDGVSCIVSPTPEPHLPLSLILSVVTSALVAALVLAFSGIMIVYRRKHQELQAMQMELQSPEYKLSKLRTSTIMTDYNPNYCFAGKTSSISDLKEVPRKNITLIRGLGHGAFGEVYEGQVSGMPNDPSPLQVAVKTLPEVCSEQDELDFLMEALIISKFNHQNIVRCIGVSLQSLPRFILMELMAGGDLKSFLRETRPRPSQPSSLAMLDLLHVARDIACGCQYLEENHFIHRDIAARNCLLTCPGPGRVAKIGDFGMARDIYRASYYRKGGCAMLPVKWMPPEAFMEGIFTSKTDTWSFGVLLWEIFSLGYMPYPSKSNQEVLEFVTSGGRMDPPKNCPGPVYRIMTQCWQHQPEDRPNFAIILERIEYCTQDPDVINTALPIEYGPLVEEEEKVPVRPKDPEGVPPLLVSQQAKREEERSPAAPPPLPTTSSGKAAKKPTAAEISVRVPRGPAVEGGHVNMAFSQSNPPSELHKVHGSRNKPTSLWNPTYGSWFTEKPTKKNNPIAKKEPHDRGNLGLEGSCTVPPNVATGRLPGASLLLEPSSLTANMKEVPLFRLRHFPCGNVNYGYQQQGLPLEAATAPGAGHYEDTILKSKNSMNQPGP

TRKC = molecular target: T3, TRKC (Homo sapiens, UniProt Q16288); details: TRKC
T3 construct: purchased Eurofins DiscoverX KINOMEscan (scanTK)
T3 sequence (Q16288 32-839): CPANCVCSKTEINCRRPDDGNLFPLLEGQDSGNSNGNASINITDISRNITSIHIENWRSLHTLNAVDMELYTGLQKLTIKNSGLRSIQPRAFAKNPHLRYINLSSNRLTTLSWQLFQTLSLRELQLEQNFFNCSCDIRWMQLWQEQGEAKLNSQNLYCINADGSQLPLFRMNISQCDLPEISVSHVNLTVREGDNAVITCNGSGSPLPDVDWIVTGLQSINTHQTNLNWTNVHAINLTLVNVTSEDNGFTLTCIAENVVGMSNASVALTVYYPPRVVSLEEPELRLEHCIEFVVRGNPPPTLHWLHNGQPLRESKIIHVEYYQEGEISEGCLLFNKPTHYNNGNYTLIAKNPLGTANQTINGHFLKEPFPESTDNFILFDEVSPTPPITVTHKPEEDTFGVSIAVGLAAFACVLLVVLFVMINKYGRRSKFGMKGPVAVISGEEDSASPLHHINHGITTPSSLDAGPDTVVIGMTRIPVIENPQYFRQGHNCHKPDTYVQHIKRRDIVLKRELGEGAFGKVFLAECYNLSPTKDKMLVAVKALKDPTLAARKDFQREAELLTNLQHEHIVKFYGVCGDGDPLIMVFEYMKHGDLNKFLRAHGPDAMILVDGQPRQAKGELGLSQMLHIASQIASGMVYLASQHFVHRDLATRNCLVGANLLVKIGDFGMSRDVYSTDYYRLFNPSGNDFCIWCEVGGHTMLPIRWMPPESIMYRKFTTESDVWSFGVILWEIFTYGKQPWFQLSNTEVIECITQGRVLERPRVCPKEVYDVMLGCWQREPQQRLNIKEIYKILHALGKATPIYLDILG

[1] = molecular target: T4, ABL1(F317L)-phosphorylated (Homo sapiens, UniProt P00519, F317L)
T4 construct: purchased Eurofins DiscoverX KINOMEscan (scanTK)

KIT(L576P) = molecular target: T5, KIT(L576P) (Homo sapiens, UniProt P10721, L576P)
T5 construct: purchased Eurofins DiscoverX KINOMEscan (scanTK)
T5 sequence (P10721 26-976 L576P): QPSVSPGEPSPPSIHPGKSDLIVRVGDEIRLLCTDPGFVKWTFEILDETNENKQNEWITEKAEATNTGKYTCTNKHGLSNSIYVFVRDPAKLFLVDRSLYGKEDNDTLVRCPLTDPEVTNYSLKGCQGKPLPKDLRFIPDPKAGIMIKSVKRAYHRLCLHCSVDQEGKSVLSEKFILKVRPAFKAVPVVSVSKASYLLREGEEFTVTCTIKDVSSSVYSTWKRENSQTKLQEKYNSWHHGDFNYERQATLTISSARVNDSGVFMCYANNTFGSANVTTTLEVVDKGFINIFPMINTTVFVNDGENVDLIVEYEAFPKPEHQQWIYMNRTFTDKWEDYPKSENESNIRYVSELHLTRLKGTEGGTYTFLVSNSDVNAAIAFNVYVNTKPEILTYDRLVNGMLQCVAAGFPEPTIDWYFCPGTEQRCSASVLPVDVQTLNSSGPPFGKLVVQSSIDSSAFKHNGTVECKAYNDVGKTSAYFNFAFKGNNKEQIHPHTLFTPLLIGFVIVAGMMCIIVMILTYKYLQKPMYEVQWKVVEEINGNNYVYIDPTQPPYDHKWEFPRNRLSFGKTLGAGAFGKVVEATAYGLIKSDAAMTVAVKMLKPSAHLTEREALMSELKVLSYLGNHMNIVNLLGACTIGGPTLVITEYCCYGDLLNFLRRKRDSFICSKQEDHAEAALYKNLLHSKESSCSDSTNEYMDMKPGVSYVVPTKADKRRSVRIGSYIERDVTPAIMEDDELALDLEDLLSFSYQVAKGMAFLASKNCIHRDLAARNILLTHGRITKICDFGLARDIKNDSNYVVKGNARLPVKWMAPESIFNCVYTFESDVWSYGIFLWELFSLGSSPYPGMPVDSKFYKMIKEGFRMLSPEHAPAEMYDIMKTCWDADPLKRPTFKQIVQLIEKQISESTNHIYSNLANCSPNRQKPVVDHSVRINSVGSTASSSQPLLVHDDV

PDGFRA = molecular target: T6, PDGFRA (Homo sapiens, UniProt P16234)
T6 construct: purchased Eurofins DiscoverX KINOMEscan (scanTK)

[2] = molecular target: T7, JAK3(JH1domain-catalytic) (Homo sapiens, UniProt P52333)
T7 construct: JAK3(JH1domain-catalytic); purchased Eurofins DiscoverX KINOMEscan (scanTK)

EPHB4 = molecular target: T8, EPHB4 (Homo sapiens, UniProt P54760)
T8 construct: purchased Eurofins DiscoverX KINOMEscan (scanTK)
T8 sequence (P54760 16-987): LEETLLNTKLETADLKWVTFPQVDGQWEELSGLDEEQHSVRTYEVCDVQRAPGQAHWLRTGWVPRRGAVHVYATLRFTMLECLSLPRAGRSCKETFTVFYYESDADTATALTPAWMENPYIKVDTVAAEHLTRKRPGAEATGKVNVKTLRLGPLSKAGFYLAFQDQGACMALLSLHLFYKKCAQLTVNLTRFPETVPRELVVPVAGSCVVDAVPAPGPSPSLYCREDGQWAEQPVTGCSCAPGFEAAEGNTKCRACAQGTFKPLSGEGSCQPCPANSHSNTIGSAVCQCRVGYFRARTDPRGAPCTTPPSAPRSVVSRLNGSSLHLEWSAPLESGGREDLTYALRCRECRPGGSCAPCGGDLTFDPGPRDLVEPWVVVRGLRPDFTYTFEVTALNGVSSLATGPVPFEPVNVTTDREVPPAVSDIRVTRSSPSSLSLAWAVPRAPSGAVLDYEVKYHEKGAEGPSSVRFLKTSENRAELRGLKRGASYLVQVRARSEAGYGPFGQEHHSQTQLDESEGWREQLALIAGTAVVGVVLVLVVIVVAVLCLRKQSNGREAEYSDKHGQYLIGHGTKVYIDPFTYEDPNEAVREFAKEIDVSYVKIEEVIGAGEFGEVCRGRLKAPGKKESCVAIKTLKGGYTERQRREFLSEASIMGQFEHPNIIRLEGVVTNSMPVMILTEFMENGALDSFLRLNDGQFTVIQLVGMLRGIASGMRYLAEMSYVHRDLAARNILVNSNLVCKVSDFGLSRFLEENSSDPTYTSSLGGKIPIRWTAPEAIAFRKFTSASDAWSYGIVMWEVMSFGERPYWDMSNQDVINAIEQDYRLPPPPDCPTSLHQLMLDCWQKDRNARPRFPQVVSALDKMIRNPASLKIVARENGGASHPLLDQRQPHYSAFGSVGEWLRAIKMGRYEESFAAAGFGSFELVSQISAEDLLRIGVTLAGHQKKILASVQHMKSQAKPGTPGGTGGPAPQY

EGFR(G719S) = molecular target: T9, EGFR(G719S) (Homo sapiens, UniProt P00533, G719S)
T9 construct: purchased Eurofins DiscoverX KINOMEscan (scanTK)
T9 sequence (P00533 25-1210 G719S): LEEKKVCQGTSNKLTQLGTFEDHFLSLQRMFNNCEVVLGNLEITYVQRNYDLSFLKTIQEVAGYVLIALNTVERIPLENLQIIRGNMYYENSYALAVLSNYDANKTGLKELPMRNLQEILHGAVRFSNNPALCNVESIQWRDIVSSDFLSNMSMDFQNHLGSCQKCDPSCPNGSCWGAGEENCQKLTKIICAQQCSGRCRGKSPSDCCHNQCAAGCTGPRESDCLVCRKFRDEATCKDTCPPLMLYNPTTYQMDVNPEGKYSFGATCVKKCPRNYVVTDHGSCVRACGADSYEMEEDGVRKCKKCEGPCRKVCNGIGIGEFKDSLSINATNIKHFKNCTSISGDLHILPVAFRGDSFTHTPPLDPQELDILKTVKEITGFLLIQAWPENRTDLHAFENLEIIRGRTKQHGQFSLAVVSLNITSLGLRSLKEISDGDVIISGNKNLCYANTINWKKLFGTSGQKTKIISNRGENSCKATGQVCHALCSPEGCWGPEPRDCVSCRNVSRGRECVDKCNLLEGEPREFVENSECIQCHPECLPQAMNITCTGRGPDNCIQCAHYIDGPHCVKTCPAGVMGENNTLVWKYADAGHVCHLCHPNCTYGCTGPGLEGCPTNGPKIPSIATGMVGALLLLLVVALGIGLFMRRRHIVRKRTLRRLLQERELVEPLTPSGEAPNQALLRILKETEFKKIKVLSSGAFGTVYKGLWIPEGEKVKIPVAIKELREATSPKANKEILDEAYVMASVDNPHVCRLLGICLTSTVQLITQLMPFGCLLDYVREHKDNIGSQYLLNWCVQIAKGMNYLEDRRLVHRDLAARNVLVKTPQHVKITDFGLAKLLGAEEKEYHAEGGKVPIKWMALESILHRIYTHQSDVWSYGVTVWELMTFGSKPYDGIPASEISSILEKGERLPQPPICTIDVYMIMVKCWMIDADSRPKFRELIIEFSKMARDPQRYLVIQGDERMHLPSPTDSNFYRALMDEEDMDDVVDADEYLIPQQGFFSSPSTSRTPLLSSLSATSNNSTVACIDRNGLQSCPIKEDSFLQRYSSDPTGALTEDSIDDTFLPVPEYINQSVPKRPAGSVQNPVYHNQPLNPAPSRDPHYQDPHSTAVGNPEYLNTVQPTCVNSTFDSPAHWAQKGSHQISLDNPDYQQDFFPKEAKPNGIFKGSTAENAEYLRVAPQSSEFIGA

[3] = molecular target: T10, JAK1(JH2domain-pseudokinase) (Homo sapiens, UniProt P23458)
T10 construct: JAK1(JH2domain-pseudokinase); purchased Eurofins DiscoverX KINOMEscan (scanTK)
T10 sequence (P23458 583-855 limits assumed): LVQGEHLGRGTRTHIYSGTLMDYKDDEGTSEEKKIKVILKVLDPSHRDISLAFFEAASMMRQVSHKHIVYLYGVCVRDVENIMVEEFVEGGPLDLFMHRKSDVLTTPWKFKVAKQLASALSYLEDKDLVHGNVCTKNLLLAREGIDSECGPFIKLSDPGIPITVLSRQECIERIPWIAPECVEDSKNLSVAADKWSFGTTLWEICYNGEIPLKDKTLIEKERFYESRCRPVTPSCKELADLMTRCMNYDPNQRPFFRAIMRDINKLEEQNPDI

MET = molecular target: T11, MET (Homo sapiens, UniProt P08581)
T11 construct: purchased Eurofins DiscoverX KINOMEscan (scanTK)

RET = molecular target: T12, RET (Homo sapiens, UniProt P07949)
T12 construct: purchased Eurofins DiscoverX KINOMEscan (scanTK)

[4] = molecular target: T13, ABL1(F317I)-phosphorylated (Homo sapiens, UniProt P00519, F317I)
T13 construct: purchased Eurofins DiscoverX KINOMEscan (scanTK)

CNC(=O)c1cnc(S(C)(=O)=O)nc1N1CCCC(n2nc(-c3ccc(Oc4ccccc4)cc3)c3c(N)ncnc32)C1 (stereo not shown) [Compound 8d, 4-(3-(4-Amino-3-(4-phenoxyphenyl)-1H-pyrazolo[3,4-d]pyrimidin-1-yl)piperidin-1-yl)-N-methyl-2-(methylsulfonyl)pyrimidine-5-carboxamide]
difference in %Control from reference compound Ib at 1 µM (ABL1-nonphosphorylated; @1000nM): 24.5%
remaining binding at 1 µM (ABL1-nonphosphorylated; @1000nM, read-out: %Control): 33%
remaining binding at 1 µM (ABL1-nonphosphorylated; read-out: %Control @1000nM): 33%
difference in % of control vs compound Ib at 1 µM (ALK(L1196M); @1000nM): -21%
remaining binding at 1 µM (ALK(L1196M); @1000nM, read-out: %Control): 79%
remaining binding at 1 µM (ALK(L1196M); read-out: %Control @1000nM): 79%
difference in %Control versus compound Ib at 1 µM (TRKC; @1000nM): -3%
remaining binding at 1 µM (TRKC; @1000nM, read-out: %Control): 92%
remaining binding at 1 µM (TRKC; read-out: %Control @1000nM): 92%
difference in %Control from compound Ib at 1 µM ([1]; @1000nM): 39%
remaining binding at 1 µM ([1]; @1000nM, read-out: %Control): 76%
remaining binding at 1 µM ([1]; read-out: %Control @1000nM): 76%
difference in %Control versus Ib at 1 µM (KIT(L576P); @1000nM, read-out: % difference (compound - Ib %Control)): 13%
remaining binding at 1 µM (KIT(L576P); @1000nM, read-out: %Control): 45%
remaining binding at 1 µM (KIT(L576P); read-out: %Control @1000nM): 45%
remaining binding at 1 µM (PDGFRA; @1000nM, read-out: %Control): 78%
remaining binding at 1 µM (PDGFRA; read-out: %Control @1000nM): 78%
difference in %Control from compound Ib at 1 µM ([2]; @1000nM, JAK3(JH1domain-catalytic)): 67.5%
remaining binding at 1 µM ([2]; @1000nM, JAK3(JH1domain-catalytic), read-out: %Control): 73%
remaining binding at 1 µM ([2]; JAK3(JH1domain-catalytic), read-out: %Control @1000nM): 73%
inhibition at 1 µM ([2]; ScanTK, 1 μM): 27%
difference in %Control from compound Ib at 1 µM (EPHB4; @1000nM): 0%
remaining binding at 1 µM (EPHB4; @1000nM, read-out: %Control): 100%
remaining binding at 1 µM (EPHB4; read-out: %Control @1000nM): 100%
difference in %Control from compound Ib at 1 µM (EGFR(G719S); @1000nM): 77.4%
remaining binding at 1 µM (EGFR(G719S); @1000nM, read-out: %Control): 78%
remaining binding at 1 µM (EGFR(G719S); read-out: %Control @1000nM): 78%
%Control difference versus compound Ib at 1 µM ([3]; @1000nM): 5%
remaining binding at 1 µM ([3]; @1000nM, read-out: %Control): 100%
remaining binding at 1 µM ([3]; read-out: %Control @1000nM): 100%
remaining binding at 1 µM (MET; @1000nM, read-out: %Control): 100%
remaining binding at 1 µM (MET; read-out: %Control @1000nM): 100%
remaining binding at 1 µM (RET; @1000nM, read-out: %Control): 31%
remaining binding at 1 µM (RET; read-out: %Control @1000nM): 31%
difference in %Control from reference compound Ib at 1 µM ([4]; @1000nM): 17%
remaining binding at 1 µM ([4]; @1000nM, read-out: %Control): 90%
remaining binding at 1 µM ([4]; read-out: %Control @1000nM): 90%
